Measurements: patent US5376643A, “Composition for application to hair” (priority 1986, dated 1994)
Read-outs that look alike come from different tables or passages of the source. Blank lines part the entries; values can stand above or below the compound they belong to.

Key:
grayed hair [1] = test: Half-Head technique: preventing graying of the hair and restoring grayed hair to its natural color (Example 1 procedure); type: in vivo, human (men and women); settings: for effect of preventing graying and restoring grayed hair, compared with Example 2 / amount of grayed hair / effect of preventing graying of the hair and restoring grayed hair to its natural color / effect of preventing graying and restoring grayed hair / effect on graying, compared with Example 12: in words; for effect of preventing graying and restoring grayed hair, compared with Example 2: hair cream, used instead of N^6,O^2'-DScAMP-Na; for Comp. Sample is better / Comp. Sample is somewhat better / Same / This Invention is better / This Invention is somewhat better: 3 months; for amount of grayed hair / effect of preventing graying of the hair and restoring grayed hair to its natural color: compared with comparative sample free from the component; for effect of preventing graying and restoring grayed hair: hair tonic; for effect on graying, compared with Example 12: hair tonics, used in place of FAD-2Na
Description: The effectiveness of the hair tonics thus prepared were estimated in the following manner: Twenty statistically equivalent persons (comprising men and women aged 30 to 60 years) were selected and Samples of the hair tonics were applied to their scalps in accordance with the Half-Head technique, in which Samples were separately applied to the right and left half portions of the scalp, twice a day (in the morning and at night) for three months. The effects of preventing graying of the hair and restoring grayed hair to its natural color were estimated by comparing the conditions of the portions observed before and after the application of Samples.

grayed hair [2] = test: Half-Head technique, two groups of 20 persons: preventing graying of the hair and restoring grayed hair (Example 6 procedure); type: in vivo, human (men and women); settings: in words; hair creams
Description: Two groups each of which comprised 20 persons (50 to 60 years old; comprising men and women) were selected and the hair tonic Samples (S-I and S-II) were separately applied to scalp of each person of one group in accordance with Half-Head technique wherein the hair tonics I and II were separately applied to the right half of the scalp and the left half thereof, on the other hand Samples (S-II and S-III) were likewise separately applied to each person of the other group in the same manner twice a day (in the morning and at night) for 3 months.

[3] = Safety examination (overall, in words); settings: same procedures as in Example 1
[4] = Acute Oral Toxicity (rat); settings: in vivo
guinea pig [5] = test: Phototoxicity (guinea pig); type: in vivo
guinea pig [6] = test: Skin Sensitization (guinea pig); type: in vivo
guinea pig [7] = test: Photosensitization (guinea pig); type: in vivo
scalp [8] = settings: in vivo
Description: (§1) Twenty statistically equivalent persons (comprising men and women aged 30 to 60 years) were selected and Samples of the hair tonics were applied to their scalps in accordance with the Half-Head technique, in which Samples were separately applied to the right and left half portions of the scalp, twice a day (in the morning and at night) for three months. The effects of preventing graying of the hair and restoring grayed hair to its natural color were estimated by comparing the conditions of the portions observed before and after the application of Samples.

guinea pig [9] = settings: in vivo
rabbit = settings: in vivo
human = settings: in vivo
[10] = in vivo
scalp [11] = test: Condition of the scalp during and after use for 3 months
Description: as §1

[12] = in words; cited from earlier work
[13] = in words; cited from earlier work; remark: listed apart in the source
[14] = Table XXV, hair tonic with 0.1% vs tonic without
[15] = Table III, of 20 persons, hair tonic with 0.05% vs tonic without, twice a day
[16] = Table X, hair cream with 0.8% vs cream without
[17] = Table VIII, milky lotion with 0.2% vs lotion without

Structure (SMILES): Nc1ncnc2c1nc(Br)n2[C@@H]1O[C@@H]2COP(=O)(O)O[C@H]2[C@H]1O [8-BrcAMP-Na]
- effect of preventing graying and restoring grayed hair, compared with Example 2 (grayed hair [1]): Substantially the same excellent effect as in Example 2

Structure (SMILES): Nc1ncnc2c1nc(Sc1ccc(Cl)cc1)n2[C@@H]1O[C@@H]2COP(=O)(O)O[C@H]2[C@H]1O [8-C1PhScAMP-Na]
- effect of preventing graying and restoring grayed hair, compared with Example 2 (grayed hair [1]): Substantially the same excellent effect as in Example 2

Structure (SMILES): Nc1ncnc2c1nc(Cl)n2[C@@H]1O[C@@H]2COP(=O)(O)O[C@H]2[C@H]1O [8-ClcAMP-Na]
- effect of preventing graying and restoring grayed hair, compared with Example 2 (grayed hair [1]): Substantially the same excellent effect as in Example 2

Structure (SMILES): Nc1ncnc2c1nc(O)n2[C@@H]1O[C@@H]2COP(=O)(O)O[C@H]2[C@H]1O [8-OHcAMP-Na]
- effect of preventing graying and restoring grayed hair, compared with Example 2 (grayed hair [1]): Substantially the same excellent effect as in Example 2

Structure (SMILES): Nc1ncnc2c1nc(S)n2[C@@H]1O[C@@H]2COP(=O)(O)O[C@H]2[C@H]1O [8-SHcAMP-Na]
- effect of preventing graying and restoring grayed hair, compared with Example 2 (grayed hair [1]): Substantially the same excellent effect as in Example 2

Structure (SMILES): Cc1cc2nc3c(=O)[nH]c(=O)nc-3n(C[C@H](O)[C@H](O)[C@H](O)COP(=O)(O)OP(=O)(O)OC[C@H]3O[C@@H](n4cnc5c(N)ncnc54)[C@H](O)[C@@H]3O)c2cc1C [FAD, flavin adenine dinucleotide]
- effect on graying, compared with Example 7 (grayed hair [2]): approximately the same results as those in Example 7

Structure (SMILES): Cc1cc2nc3c(=O)[nH]c(=O)nc-3n(C[C@H](O)[C@H](O)[C@H](O)COP(=O)(O)OP(=O)(O)OC[C@H]3O[C@@H](n4cnc5c(N)ncnc54)[C@H](O)[C@@H]3O)c2cc1C [FAD-2Na]
- Comp. Sample is better (grayed hair [1]; [14]): 0
- Comp. Sample is somewhat better (grayed hair [1]; [14]): 0
- Same (grayed hair [1]; [14]): 4
- This Invention is better (grayed hair [1]; [14]): 8
- This Invention is somewhat better (grayed hair [1]; [14]): 8
- safety [3]: had no problems such as skin irritation and thus had extremely high safety

Structure (SMILES): CC(=O)Nc1ncnc2c1nc(N)n2C1OC2COP(=O)([O-])OC2C1OC(C)=O.[Na+] (stereo not drawn) [N^6,O^2'-DA-8-NH2 cAMP-Na]
- effect of preventing graying and restoring grayed hair, compared with Example 2 (grayed hair [1]): Substantially the same excellent effect as in Example 2

Structure (SMILES): CCCC(=O)Nc1ncnc2c1ncn2[C@@H]1O[C@@H]2COP(=O)(O)O[C@H]2[C@H]1OC(=O)CCC [N^6,O^2'-DBcAMP-Na]
- Comp. Sample is better (grayed hair [1]; [15]): 0
- Comp. Sample is somewhat better (grayed hair [1]; [15]): 0
- Same (grayed hair [1]; [15]): 2
- This Invention is better (grayed hair [1]; [15]): 11
- This Invention is somewhat better (grayed hair [1]; [15]): 7
- amount of grayed hair (grayed hair [1]): reduced the amount of grayed hair more effectively than the comparative hair tonic
- effect of preventing graying of the hair and restoring grayed hair to its natural color (grayed hair [1]): remarkable effect
- effect of preventing graying and restoring grayed hair (grayed hair [1]; amount of 0.005%): little effect
- effect of preventing graying and restoring grayed hair (grayed hair [1]; amount of 0.01): effective
- LD50 [4]: ≥ 5000 mg/kg
- Phototoxicity (guinea pig [5]): negative
- Skin Sensitization (guinea pig [6]): negative
- Photosensitization (guinea pig [7]): negative
- abnormality in the condition of the scalp (scalp [8]): No abnormality was observed
- Primary Skin Irritation (guinea pig [9]): non-irritant
- Ocular-mucous Membrane Irritation (rabbit): non-irritant
- Human Patch Test (human): non-irritant
- safety [10]: extremely high

- abnormality in the condition of the scalp (scalp [11]): no abnormality was observed
Structure (SMILES): CCCC(=O)Nc1ncnc2c1ncn2[C@@H]1O[C@@H]2COP(=O)(O)O[C@H]2[C@H]1O [N^6-MBcAMP-Na]
- Comp. Sample is better (grayed hair [1]; [16]): 0
- Comp. Sample is somewhat better (grayed hair [1]; [16]): 0
- Same (grayed hair [1]; [16]): 4
- This Invention is better (grayed hair [1]; [16]): 9
- This Invention is somewhat better (grayed hair [1]; [16]): 7
- amount of grayed hair (grayed hair [1]): the amount of grayed hair was reduced
- effect of preventing graying of the hair and restoring grayed hair to its natural color (grayed hair [1]): excellent effect
- safety [3]: had no problems such as skin irritation and thus had extremely high safety

Structure (SMILES): CCCCCC(=O)Nc1ncnc2c1ncn2C1OC2COP(=O)([O-])OC2C1O.[Na+] (stereo not drawn) [N^6-MHcAMP-Na]
- effect on graying, compared with Example 12 (grayed hair [1]): substantially the same effect as in Example 12

Structure (SMILES): CCCC(=O)O[C@@H]1[C@@H]2OP(=O)(O)OC[C@H]2O[C@H]1n1cnc2c(N)ncnc21 [O^2 -MBcAMP-Na]
- effect on graying, compared with Example 7 (grayed hair [2]): approximately the same results as those in Example 7

Structure (SMILES): CCCC(=O)O[C@@H]1[C@@H]2OP(=O)(O)OC[C@H]2O[C@H]1n1c(Br)nc2c(N)ncnc21 [O^2'-MB-8BrcAMP-Na]
- effect of preventing graying and restoring grayed hair, compared with Example 2 (grayed hair [1]): Substantially the same excellent effect as in Example 2

Structure (SMILES): CCCCCCCC(=O)OC1C2OP(=O)([O-])OCC2OC1n1cnc2c(N)ncnc21.[Na+] (stereo not drawn) [O^2'-MOcAMP-Na]
- effect on graying, compared with Example 12 (grayed hair [1]): substantially the same effect as in Example 12

- abnormality in the condition of the scalp (scalp [11]): no abnormality was observed
Structure (SMILES): Nc1ncnc2c1ncn2[C@@H]1O[C@@H]2COP(=O)([O-])O[C@H]2[C@H]1OC(=O)CCC(=O)O.[Na+] [O^2'-MScAMP-Na]
- Comp. Sample is better (grayed hair [1]; [17]): 0
- Comp. Sample is somewhat better (grayed hair [1]; [17]): 0
- Same (grayed hair [1]; [17]): 3
- This Invention is better (grayed hair [1]; [17]): 10
- This Invention is somewhat better (grayed hair [1]; [17]): 7
- amount of grayed hair (grayed hair [1]): the amount of grayed hair was reduced
- effect of preventing graying of the hair and restoring grayed hair to its natural color (grayed hair [1]): excellent effect
- safety [3]: had no problems such as skin irritation and thus had extremely high safety

Structure (SMILES): CCCCCCCCC(=O)O [nonanoic acid]
- effect on graying, compared with Example 7 (grayed hair [2]): approximately the same results as in Example 7

Structure (SMILES): CCCCCCCCCCCOCC(COCCCCCCCCCCC)OCCCCCCCCCCC [triundecyl glycerylether]
- effect on graying, compared with Example 7 (grayed hair [2]): approximately the same results as in Example 7

Structure (SMILES): C=C1CC[C@H](O)C/C1=C/C=C1\CCC[C@]2(C)[C@@H]([C@H](C)CCCC(C)C)CC[C@@H]12 [vitamin D3]
- stability in the air [12]: extremely unstable in the air and easily undergo oxidation
- side-effects [13]: tend to cause side-effectssuch as hypervitaminosis D or hypercalcemia
